{
  "source": "paper PMC7200681",
  "about": "“The calcitonin-like system is an ancient regulatory system of biomineralization” (Scientific Reports, 2020)",
  "test_system": "mussel CALCRIIc",
  "assay": "Calcium mobilization assay (apoaequorin bioluminescence), dose-response, HEK 293 cells expressing mussel CALCRIIc",
  "format": "cell-based, Mytilus coruscus",
  "conditions": "HEK 293/apoaequorin, 1 μM to 0.01 nM",
  "from_the_text": "The complete sequence of the Mediterranean mussel CALCRIa was amplified using specific primers (Table 1) from cDNA of a tissue mixture (mantle, adductor muscle, gills, gonads) using a proofreading DNA polymerase (iProof BIORAD, Portugal) and cloned into the pGEMT-easy vector (PROMEGA, Spain). The Mediterranean mussel CALCRIIa transcript that was found in the mantle transcriptome was incomplete and lacked the N-terminus (by comparisons with the hard-shelled mussel homologue) and so the remaining sequence (from 1–393 bp) was deduced from the hard-shelled mussel homologue receptor and the receptor was synthesised and supplied by GENESCRIPT (USA). The complete transcripts for mussel CALCRIc, CALCRIIb and CALCRIIc were only found in the hard-shelled mussel mantle transcriptome and homologues were only found in the Mediterranean mussel genome as they were absent from the species mantle transcriptome and so they were also synthesised and supplied by GENESCRIPT (USA) using the hard-shelled mussel receptor sequences as template. […]\nMammalian cell cultures and transfections followed the methodology described by[89],[90]. […] Cell recovery was monitored daily and the medium was changed every two days until no cell death was observed. […]\nHEK293 cells stably expressing five mussel receptors (CALCRIa, CALCRIc, CALCRIIa, CALCRIIb and CALCRIIc) were stimulated with the two mussel peptides and the vertebrate (human and salmon) calcitonins. Receptor activation was assessed in vitro by measuring two intracellular signalling pathways: a) production of cAMP and b) mobilization of calcium (Ca^2+). The cellular response was initially assessed using 10 μM of each peptide. […]\nStable cell lines expressing the mussel receptors were transiently co-transfected with the mitochondrial targeted apo-aequorin protein cloned in pcDNA3.1. Two days after transfection cells were washed, counted and resuspended in 1 ml of DMEM /F12 Ham (without phenol red)/0.1% BSA supplemented with 2 µM coelenterazine (SIGMA-ALDRICH). […]",
  "note": "Bridge positions count the residues as written; N and C are the ends.",
  "data": [
    {"substance": "H-CTWGGGMSDEMCSTVDIDEIQRSFQVIHDRNSP-NH2 (disulfide 1-12 (inferred)) [CALCIIa, Mediterranean mussel calcitonin-like mature peptide, 33 aa, synthesized with disulphide bond and C-terminal amidation]", "values": [
      {"measurement": "Activation of mussel CALCRIIc in dose-response analysis (in words)", "result": "exclusively activated"}
    ]}
  ]
}
